Counter-ions that a name gives are not always drawn.

For this assay, the target named is T1, human EP1 receptor (Homo sapiens, UniProt P34995).
T1 construct: expressed in transfected cells; host or cells: CHO-K1
T1 sequence (P34995 1-402): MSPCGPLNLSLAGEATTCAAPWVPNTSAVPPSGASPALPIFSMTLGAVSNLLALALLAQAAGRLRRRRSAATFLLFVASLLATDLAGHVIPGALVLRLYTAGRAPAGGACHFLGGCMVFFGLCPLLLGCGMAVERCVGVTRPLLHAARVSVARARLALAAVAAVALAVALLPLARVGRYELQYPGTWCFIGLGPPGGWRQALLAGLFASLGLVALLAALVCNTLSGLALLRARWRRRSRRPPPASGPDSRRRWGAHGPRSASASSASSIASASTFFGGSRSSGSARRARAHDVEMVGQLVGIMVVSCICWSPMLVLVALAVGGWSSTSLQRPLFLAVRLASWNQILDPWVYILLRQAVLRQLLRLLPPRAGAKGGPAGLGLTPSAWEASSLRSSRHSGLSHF
Put plainly: human EP1 calcium mobilisation assay. To be noted: human EP1, PGE2-induced calcium mobilisation in CHO-K1 cells; free bases or sodium salts; averages of a number of experiments; read-out: functional pKi value (converted). Type of assay: cell-based. The method, boiled down:
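CHO-K1 cells stably expressing human EP1, loaded with Fluo-4 after 24 h at 37° C; compounds added before PGE2 challenge. Inhibition of PGE2-induced [Ca2+]i rise read by FLIPR fluorescence; pIC50 from curve fitting of half-maximal inhibition.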
For orientation: Calcium flux is commonly read through the fluorescence of an indicator in the cells.
`Clc1ccc(OCc2ccccc2)c(Cc2ccc(-c3nc4ccc(CN5CCOCC5)cc4[nH]3)o2)c1` [Example 139, 2-[5-({5-Chloro-2-[(phenylmethyl)oxy]-phenyl}methyl)-2-furanyl]-5-(4-morpholinylmethyl)-1H-benzimidazoledihydrochloride]: the Ki is less than 1 µM.

As to `Clc1ccc(OCc2ccccc2)c(Cc2ccc(-c3nnc[nH]3)o2)c1` [Example 169, 3-[5-({5-Chloro-2-[(phenylmethyl)oxy]phenyl}methyl)-2-furanyl]-1H-1,2,4-triazole], the Ki is less than 1 µM.

As for `O=C(O)c1ccc(Cc2cc(Cl)ccc2OCc2ccccn2)o1` [Example 26, Sodium 5-({5-chloro-2-[(2-pyridinylmethyl)oxy]phenyl}methyl)-2-furancarboxylate], the Ki was not above 0.01 µM.

On to `Cc1ccccc1NC(=O)c1ccc(Cc2cc(Cl)ccc2OCc2ccccc2)o1` [Example 73, 5-({5-Chloro-2-[(phenylmethyl)oxy]-phenyl}methyl)-N-(2-methylphenyl)-2-furancarboxamide], for which the Ki was less than 1 µM.

For the compound `O=C(O)c1ccc(Cc2cc(Cl)ccc2OCc2cccnc2)o1` [Example 27, Sodium 5-({5-chloro-2-[(3-pyridinylmethyl)oxy]phenyl}methyl)-2-furancarboxylate], the Ki was less than 1 µM.

Consider `CC(C)COc1ccc(Cl)cc1Cc1ccc(-c2ncc[nH]2)o1` [Example 167, 2-[5-({5-Chloro-2-[(2-methylpropyl)oxy]phenyl}methyl)-2-furanyl]-1H-imidazole], for which the Ki is not above 0.01 µM.

Consider `CC(C)COc1ccc(Cl)cc1Cc1ccc(C(=O)NCc2ccc3c(c2)OCO3)o1` [Example 39, N-(1,3-Benzodioxol-5-ylmethyl)-5-({5-chloro-2-[(2-methylpropyl)oxy]phenyl}methyl)-2-furancarboxamide], for which the Ki is less than 1 µM.

For `CC(C)COc1ccc(Cl)cc1Cc1ccc(-c2nc3cc(CN4CCCC4)cnc3[nH]2)o1` [Example 165, 2-[5-({5-Chloro-2-[(2-methylpropyl)oxy]-phenyl}methyl)-2-furanyl]-6-(1-pyrrolidinylmethyl)-1H-imidazo[4,5-b]pyridinedihydrochloride], the Ki was less than 1 µM.

As for `Cc1cc(NC(=O)OC(C)(C)C)oc1Cc1cc(Cl)ccc1OCC(C)C` [Example 30, 1,1-Dimethylethyl[5({5-chloro-2-[(2-methylpropyl)oxy]phenyl}methyl)-4-methyl-2-furanyl]carbamate], the Ki is less than 1 µM.

As for `O=C(Nc1c(F)cccc1F)c1ccc(Cc2cc(Cl)ccc2OCC2CC2)o1` [Example 94, 5-({5-Chloro-2-[(cyclopropylmethyl)oxy]-phenyl}methyl)-N-(2,6-difluorophenyl)-2-furancarboxamide], the Ki is less than 1 µM.

For the compound `CC(C)COc1ccc(Cl)cc1Cc1ccc(C(=O)NCc2cccc(F)c2F)o1` [Example 44, 5-({5-Chloro-2-[(2-methylpropyl)oxy]phenyl}methyl)-N-[(2,3-difluorophenyl)methyl]-2-furancarboxamide], the Ki was less than 1 µM.

`CC(C)COc1ccc(Cl)cc1Cc1ccc(C(=O)NCc2cccc3ccccc23)o1` [Example 47, 5-({5-Chloro-2-[(2-methylpropyl)oxy]phenyl}methyl)-N-(1-naphthalenylmethyl)-2-furancarboxamide]: the Ki was less than 1 µM.

In the case of `O=C(c1ccc(Cc2cc(Cl)ccc2OCc2ccccc2)o1)n1cnc2ccccc21` [Example 77, 1-{[5-({5-Chloro-2-[(phenylmethyl)oxy]-phenyl}methyl)-2-furanyl]carbonyl}-1H-benzimidazole], the Ki was less than 1 µM.

With `CC(C)COc1ccc(Cl)cc1Cc1ccc(C(=O)NC(C)C)o1` [Example 55, 5-({5-Chloro-2-[(2-methylpropyl)oxy]phenyl}methyl)-N-(1-methylethyl)-2-furancarboxamide], the Ki was less than 1 µM.

`Clc1ccc(OCc2ccccc2)c(Cc2ccc(-c3nc4ncccc4[nH]3)o2)c1` [Example 121, 2-[5-({5-Chloro-2-[(phenylmethyl)oxy]-phenyl}methyl)-2-furanyl]-1H-imidazo[4,5-b]pyridine]: the Ki is less than 1 µM.

In the case of `CC(C)COc1ccc(Cl)cc1Cc1ccc(-c2nc3ncccc3[nH]2)o1` [Example 116, 2-[5-({5-Chloro-2-[(2-methylpropyl)oxy]phenyl}-methyl)-2-furanyl]-1H-imidazo[4,5-b]pyridine], the Ki was less than 1 µM.

With `Cc1cc(C(=O)NCc2ccccc2)oc1Cc1cc(Cl)ccc1OCC(C)C` [Example 32, 5-({5-Chloro-2-[(2-methylpropyl)oxy]phenyl}methyl)-4-methyl-N-(phenylmethyl)-2-furancarboxamide], the Ki is less than 1 µM.

For `CC(C)COc1ccc(Cl)cc1Cc1ccc(-c2nc3ccc(F)c(F)c3[nH]2)o1` [Example 128, 2-[5-({5-Chloro-2-[(2-methylpropyl)oxy]phenyl}-methyl)-2-furanyl]-4,5-difluoro-1H-benzimidazole], the Ki was less than 1 µM.

For `O=C(O)Cc1ccc(Cc2cc(Cl)ccc2OCc2ccccc2)o1` [Example 16, Sodium [5-({5-chloro-2-[(phenylmethyl)oxy]phenyl}methyl)-2-furanyl]acetate], the Ki is not above 0.01 µM.

For `CC(C)COc1ccc(Cl)cc1Cc1ccc(C(=O)Nc2c(F)cccc2F)o1` [Example 80, 5-({5-Chloro-2-[(2-methylpropyl)oxy]-phenyl}methyl)-N-(2,6-difluorophenyl)-2-furancarboxamide], the Ki is less than 1 µM.

For the compound `CC(C)COc1ccc(Cl)cc1Cc1ccc(-c2nc3cc(F)c(F)cc3[nH]2)o1` [Example 124, 2-[5-({5-Chloro-2-[(2-methylpropyl)oxy]phenyl}-methyl)-2-furanyl]-5,6-difluoro-1H-benzimidazole], the Ki is less than 1 µM.

On to `CC(C)COc1ccc(Cl)cc1Cc1ccc(-c2nc3cc(F)ccc3[nH]2)o1` [Example 122, 2-[5-({5-Chloro-2-[(2-methyipropyl)oxy]phenyl}methyl)-2-furanyl]-5-fluoro-1H-benzimidazole], for which the Ki was less than 1 µM.

For `O=C(Nc1ccccc1Br)c1ccc(Cc2cc(Cl)ccc2OCc2ccccc2)o1` [Example 76, N-(2-bromophenyl)-5-({5-chloro-2-[(phenylmethyl)oxy]-phenyl}methyl)-2-furancarboxamide], the Ki is less than 1 µM.

Take `O=C(Nc1c(F)cccc1F)c1ccc(Cc2cc(Cl)ccc2OCc2c(F)cc(F)cc2F)o1` [Example 83, 5-[(5-Chloro-2-{[(2,4,6-trifluorophenyl)methyl]oxy}-phenyl)methyl]-N-(2,6-difluorophenyl)-2-furancarboxamide]: the Ki was less than 1 µM.

Consider `CC(C)COc1ccc(Cl)cc1Cc1ccc(-c2nc3cc(CCN4CCCC4)ccc3[nH]2)o1` [Example 161, 2-[5-({5-Chloro-2-[(2-methylpropyl)oxy]-phenyl}methyl)-2-furanyl]-5-[2-(1-pyrrolidinyl)ethyl]-1H-benzimidazoledihydrochloride], for which the Ki was less than 1 µM.

For `Cc1cc(C(=O)NCc2ccccc2)oc1Cc1cc(Cl)ccc1OCc1ccccc1` [Example 31, 5-({5-Chloro-2-[(phenylmethyl)oxy]phenyl}methyl)-4-methyl-N-(phenylmethyl)-2-furancarboxamide], the Ki is less than 1 µM.

As for `CN1CCN(c2ccc3[nH]c(-c4ccc(Cc5cc(Cl)ccc5OCc5ccccc5)o4)nc3c2)CC1` [Example 103, 2-[5-({5-Chloro-2-[(phenylmethyl)oxy]phenyl}methyl)-2-furanyl]-5-(4-methyl-1-piperazinyl)-1H-benzimidazolehydrochloride], the Ki was less than 1 µM.

In the case of `COCCOc1ccc(Cl)cc1Cc1ccc(C(=O)O)o1` [Example 8, Sodium 5-[(5-chloro-2-{[2-(methyloxy)ethyl]oxy}phenyl)methyl]-2-furancarboxylate], the Ki is less than 1 µM.

For the origin of these results see patent US20080287430A1, “Furan Compounds Useful As Ep1 Receptor Antagonists” (priority 2005, published 2008).
